pEC50: −log10 of the molar value.
How the values were obtained:
GPR40 = GPR40 (UniProt O14842); assay: GPR40 Calcium Flux Assay; type: cell-based; settings: transfected HEK293 cells stably expressing human or rat GPR40; species not given
Protocol: Biological Example 3: In Vitro Assay
Compounds were tested in a calcium flux assay using transfected HEK293 cells stably expressing either human GPR40 or rat GPR40. Human GPR40 expressing cells were cultured in DMEM-High Glucose media supplemented with 10% fetal bovine serum, 1×L-Glutamine, 1× Penicillin/Streptomycin and 500 μg/mL G418. Rat GPR40 expressing cells were cultured in DMEM-High Glucose media supplemented with 10% fetal bovine serum and 1 μg/mL puromycin. Cells were plated into poly-D-lysine coated 384-well plates and cultured overnight in a 37° C. humidified tissue culture incubator under 5% CO2/90% O2 atmosphere.
On the day of the experiment, the culture media was replaced with assay buffer (HBSS, 20 mM HEPES, 0.1% BSA) and the cells incubated at 37° C. for 1 h. Calcium-sensitive fluorescent dye (Fluo 8 No-Wash Calcium Dye, ABD Bioquest) was then added and the cells incubated for another 30 min at 37° C. followed by 15 min at room temperature while protected from the light. The cell plate and a plate of diluted compounds of Formula (I) were loaded into a fluorescent plate reader that added compounds onto the cells while measuring the fluorescence intensity of each well. The plate reader recorded fluorescence intensity at 1 second intervals for 8 min and provided the data for analysis in an Excel format. EC50 values were calculated using Prism (GraphPad) software.

[1] = molecular target: T1, Human GPR120 short form (short splice variant, NM_001195755.1) (Homo sapiens, UniProt Q5NUL3); assay: Human GPR120 Calcium Flux Assay; type: cell-based; settings: HEK-293 cells, 4200 cells/well, read-out: Human GPR120 Calcium Flux Assay Procedure B EC50
T1 construct: expressed in transfected cells; host or cells: HEK293
T1 sequence (Q5NUL3 1-361): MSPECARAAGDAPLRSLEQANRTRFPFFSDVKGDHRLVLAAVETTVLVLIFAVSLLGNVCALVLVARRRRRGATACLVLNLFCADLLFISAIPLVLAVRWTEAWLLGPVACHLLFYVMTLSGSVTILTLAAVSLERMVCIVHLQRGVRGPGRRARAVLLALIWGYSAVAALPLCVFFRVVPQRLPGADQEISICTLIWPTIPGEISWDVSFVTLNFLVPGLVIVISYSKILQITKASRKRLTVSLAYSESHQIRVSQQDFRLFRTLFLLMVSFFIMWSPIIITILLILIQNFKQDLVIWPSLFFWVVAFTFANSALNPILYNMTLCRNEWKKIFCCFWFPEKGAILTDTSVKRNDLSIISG
Description: In Vitro Assay: Human GPR120 in Calcium Flux Assay
This in vitro assay serves to assess test compound agonist activity against the short splice variant (SVS with Accession number NM_001195755.1 confirmed by sequencing data) of the GPR120 receptor. The Human Short splice variant #2 (NM_001195755.1) is missing an in-frame coding exon compared to variant 1 (the Human Long splice variant NM_181745.3), resulting in a shorter isoform (GPR120-S) lacking a 16 aa protein segment compared to isoform GPR120-L. The assay platform utilizes HEK-293 cells stably transfected to express the Human GPR120 short form. These cells are first loaded with the Ca^+2 sensitive dye, Fluo-4 NW. Upon stimulation, intracellular released Ca^+2 can bind to the dye and alter its fluorescence intensity. This increase in fluorescence signal, and thus the flux in intracellular [Ca^2+], is detected and quantitated by fluorescence imaging using a FLIPR reader. The effect of the agonist is measured as a function of concentration and used to calculate an EC50 based upon a response curve. […]
In this procedure 4200 cells/well were employed.
A Human GPR120 clone (Genbank accession number NM_001195755.1) was placed into the pcDNA3.1 mammalian expression vector carrying the neomycin resistance gene. A stable mammalian cell was generated by placing the above clone into a HEK293 background. Clonal cells responding to long chain fatty acids had expression levels of GPR120 confirmed by RT-qPCR. Human HEK-GPR120 cells were cultured in Dulbecco's Modified Eagle's Medium (DMEM)/F12 medium supplemented with 10% fetal bovine serum (FBS), 1% L-Glutamine and 1% penicillin/streptomycin and 0.5 mg/ml G-418. Cells were split 2 times a week to keep the cells in the log-phase growth.
In preparation for the assay, HEK cells stably transfected with Human GPR120 (2.5K cells per well in 25 uL growth medium) were seeded into 384-well plates and then incubated overnight (37° C., 5% CO2). The next day, the media was changed to 20 μL assay buffer and the cell starved for 1 h at 37° C. The dye loading solution (2× dye) was prepared using 10 mL assay buffer, 100 μL of 250 mM probenecid, 1 bottle of Component A, and 20 μl of dye in DMSO. Twenty μL of the 2× dye loading buffer was then added to each well. The plates were incubated at 37° C. for 30 min, then at room temperature for an additional 15 minutes, before performing the assay on FLIPR.
The assay was performed on a FLIPR plate reader using the following parameters. Baseline was read for 10 seconds at 1 sec intervals. The program was set to transfer 10 μL of ligand from compound plate to cell plate after baseline reading. Aspiration was executed at: 10 μL/sec speed, 4.6 μL height; Dispensing was executed at: 30 μL/sec speed, 45 μL height. After compound addition, each well was read for 300 sec, with measurements collected at 1 sec intervals.
The kinetic data from the FLIPR was based upon a 5 minute window for data collection. The fluorescence of each sample well was used for individual calculations of a normalized RFU value, which was defined as maximum response minus the minimum response. The normalized fluorescence reading (RFU) was calculated as follows:
The data were fitted to a sigmoidal dose-response curve with a variable Hill slope (<2) using nonlinear regression with GraphPad Prism 5.0 to calculate the EC50 values. The Fitting Equation was: Y=Bottom+(Top−Bottom)/(1+10^((Log EC50−X)*HillSlope)), where X is the log of the concentration and Y is the response.

| SMILES | pEC50 (GPR40) | pEC50 [1] |
| --- | --- | --- |
| CCCCCCC1=C(COc2ccc(CCC(=O)O)c(C(F)(F)F)c2)COCC1 [compound 719] | 5.99 | < 5.30 |
| Cc1ccc(C2=C(COc3ccc(CCC(=O)O)c(C(F)(F)F)c3)COCC2)c(F)c1 [compound 684] | 5.57 | 6.10 |
| O=C(O)CCc1ccc(OCC2=C(Cc3ccccc3)CCOC2)cc1Cl [compound 713] | 6.15 | < 5.30 |
| Cc1ccc(C2=C(COc3ccc(CCC(=O)O)c(C(F)(F)F)c3)COCC2)cc1F [compound 685] | 6.08 | 6.01 |
| O=C(O)CCc1ccc(OCC2=C(C3C=CCC3)CCOC2)cc1 (centres unmarked) [compound 740] | 5.68 | 5.94 |
| O=C(O)CCc1cc(F)c(OCC2=C(Cc3ccc(Cl)cc3)CCOC2)c(F)c1 [compound 721] | < 5.00 | 5.62 |
| O=C(O)CCc1ccc(OCC2=C(Cc3ccc(Cl)cc3)CCOC2)cc1C(F)(F)F [compound 696] | 6.66 | < 5.30 |
| C=C(C1=C(COc2ccc(CCC(=O)O)cc2F)COCC1)c1ccccc1 [compound 723] | < 5.00 | < 5.30 |
| O=C(O)CCc1ccc(OCC2=C(C3CCCC3)COC2)cc1 [compound 632] | 5.59 | 6.37 |
| COc1ccc(CC2=C(COc3ccc(CCC(=O)O)cc3)COCC2)cc1 [compound 697] | ~4.72 | < 5.30 |
| O=C(O)CCc1ccc(OCC2=C(C3CCCC3)CCOCC2)cc1 [compound 780] | 5.58 | 5.88 |
| C=C(C1=C(COc2ccc(CCC(=O)O)c(Cl)c2)COCC1)c1ccccc1 [compound 720] | 6.47 | < 5.30 |
| CC(C)CC1=C(COc2ccc(CCC(=O)O)c(Cl)c2)COCC1 [compound 732] | 5.97 | < 5.30 |
| CC(C)CCC1=C(COc2ccc(CCC(=O)O)c(C(F)(F)F)c2)COCC1 [compound 722] | 6.01 | 5.92 |
| O=C(O)CCc1ccc(OCC2=C(C3CCCC3)COCC2)cc1 [compound 764] | 5.84 | 6.34 |
| O=C(O)CCc1ccc(OCC2=C(Cc3ccccc3)CCOC2)cc1 [compound 688] | 5.49 | 5.53 |
| O=C(O)CCc1ccc(OCC2=C(C3CCCC3)CCOC2)cc1C(F)(F)F [compound 731] | 7.03 | 6.09 |
| CCCCC1=C(COc2ccc(CCC(=O)O)c(C(F)(F)F)c2)COCC1 [compound 707] | 6.49 | 6.08 |
| O=C(O)CCc1cc(F)c(OCC2=C(C3CCCC3)CCOC2)c(F)c1 [compound 736] | < 5.00 | 6.21 |
| C=C(C1=C(COc2ccc(CCC(=O)O)c(C(F)(F)F)c2)COCC1)c1ccc(C(F)(F)F)cc1 [compound 705] | 7.14 | < 5.30 |
| CC(C)CC1=C(COc2c(F)cc(CCC(=O)O)cc2F)COCC1 [compound 733] | < 5.00 | 5.74 |
| O=C(O)CCc1ccc(OCC2=C(C3CCC3)CCOC2)cc1Cl [compound 725] | 6.23 | 5.63 |
| Cc1ccc(C2=C(COc3ccc(CCC(=O)O)cc3)CCOC2)cc1F [compound 769] | < 5.00 | 5.96 |
| CC(C1=C(COc2ccc(CCC(=O)O)c(C(F)(F)F)c2)COCC1)c1ccccc1 (centres unmarked) [compound 701] | 6.84 | < 5.30 |
| O=C(O)CCc1ccc(OCC2=C(Cc3ccc(Cl)cc3)CCOC2)cc1 [compound 695] | 5.50 | < 5.30 |
| COc1ccc(CC2=C(COc3ccc(CCC(=O)O)c(C(F)(F)F)c3)COCC2)cc1 [compound 698] | 6.47 | < 5.30 |
| C=C(C1=C(COc2ccc(CCC(=O)O)cc2)COCC1)c1ccc(F)cc1 [compound 702] | 5.81 | < 5.30 |
| CCC(C)C1=C(COc2ccc(CCC(=O)O)c(C(F)(F)F)c2)COCC1 (centres unmarked) [compound 734] | 6.13 | 4.99 |

Source: patent US20210024483A1, “HETEROCYLCOALKENYL DERIVATIVES USEFUL AS AGONISTS OF THE GPR120 AND / OR GPR40” (Janssen Pharmaceutica NV, priority 2018, published 2021)
